Experimental data reported in patent US20110028566A1, “COMPOSITIONS AND PRODUCTS CONTAINING CYCLOALIPHATIC DIOL ANTIMICROBIAL AGENTS AND METHODS OF USING THE COMPOSITIONS AND PRODUCTS” (EASTMAN CHEMICAL COMPANY, priority 2009, published 2011).
“Also recorded” adds a separate entry of the source.

How the values were obtained:
C. albicans = test: MIC comparison of 1,1- and 1,4-CHDM, 96-well plates; format: cell-based; settings: for MIC Day 1: 24 H; for MIC Day 2: 48 H; for MIC Day 3: 72 H
Method: (§1) The antimicrobial activities of 1,4-cyclohexanedimethanol (1,4-CHDM) and 1,1-cyclohexanedimethanol (1,1-CHDM) have been determined. […] MICs were individually calculated for three consecutive days with both 1,1-cyclohexanedimethanol and the 31% cis:69% trans mixture of 1,4-cyclohexanedimethanol. Both compounds were evaluated against a panel of five strains of microorganisms.
(§2) Strains P. aeruginosa, C. albicans, E. coli, A. niger and S. aureus were purchased from the American Type Culture Collection (Manassas, Va.). NUNC flat bottom polystyrene 96 well microtiter plates (NUNC Cat# 269787), and 17×100 mm culture tubes (VWR Cat# 60818-703) were purchased from VWR International, LLC (West Chester, Pa.). Eastman CHDM-D90 and 1,1-CHDM (>99.7% by GC and verified by NMR) were provided by Eastman Chemical Company (Kingsport, Tenn.). All bacterial cultures were grown in BD BBL trypticase soy broth, and all fungal cultures were grown in sabourand dextrose broth purchased from VWR International, LLC (West Chester, Pa.). Absorbance measurements were taken with a TECAN GENios Pro microplate reader.
(§3) A small loopful of inoculum was transferred from a freshly streaked agar plate of each strain to 5 ml of sterile media in a 17×100 mm culture tube. The bacteria were incubated for 20-28 hours and C. albicans for 44-52 hours.
(§4) Stock solutions were prepared for each isomer in the corresponding growth media at a concentration of 5% w/v (1,4-CHDM) or 2.25% w/v (1,1-CHDM). Serial dilutions were prepared with a dilution ratio of 1:1.3333 such that one log range was covered with nine dilutions.
(§5) Two-hundred microliters of each CHDM concentration was transferred into 4 wells of a sterile 96-well plate. Four extra wells of the highest concentration were filled for the uninoculated high-level controls. Eight additional wells were filled with only sterile broth to serve as negative and positive controls. The last well of each CHDM isomer dilution was left uninoculated to serve as controls for background turbidity associated with test compounds. Plates with bacteria or C. albicans were inoculated with 2 μl of seed culture for final concentration of roughly 10^6 CFU/ml for the bacteria and 10^5 CFU/ml for the C. albicans. Plates with A. niger were inoculated with 2 μl of spore suspension prepared above.
(§6) Each plate was covered and incubated at the appropriate temperature and turbidity as a measure of cell density was determined via absorbance measurement at 612 nm using a microplate reader. Measurements were taken at 24, 48 and 72 hours for each plate. The raw data was exported into an Excel spreadsheet and the MIC values were determined and expressed as wt %. The absorbance of each inoculated CHDM well was retrieved by first subtracting out the average reading for each uninoculated well, then by comparison to a positive threshold to determine positive or negative status for growth. The positive threshold was calculated by multiplication of the average absorbance for the inoculated media-only wells by 0.05. The MIC was determined as the lowest test concentration resulting in all three replicate wells displaying values below the positive threshold.

E. coli = test: as above; format: cell-based; settings: for MIC Day 1: 24 H; for MIC Day 2: 48 H; for MIC Day 3: 72 H
Method: as §1, §2, §3, §4, §5, §6

P. aeruginosa = test: as above; format: cell-based; settings: for MIC Day 1: 24 H; for MIC Day 2: 48 H; for MIC Day 3: 72 H
Method: as §1, §2, §3, §4, §5, §6

S. aureus = test: as above; format: cell-based; settings: for MIC Day 1: 24 H; for MIC Day 2: 48 H; for MIC Day 3: 72 H
Method: as §1, §2, §3, §4, §5, §6

A. niger = test: as above; format: cell-based; settings: for MIC Day 1: 24 H; for MIC Day 2: 48 H; for MIC Day 3: 72 H
Method: as §1, §2
A. niger was cultured on sabourand dextrose agar plates until a heavy concentration of black spores were visibly apparent. Spores were harvested from the plate by suspension in 3 ml of sabourand dextrose broth utilizing a sterile plastic spreader and sterile transfer pipette.
as §4, §5, §6

[1] = system: Aspergillus niger ATCC 16404; test: MIC determination and synergy testing (Kull synergy index), microplate; format: cell-based; settings: A. niger; plate 154C; day 3; MP and CHDM
Method: (§7) The test cultures are listed in Table 7 along with the incubation temperatures used for growth and minimum inhibitory concentration (MIC) testing. […] C. albicans was cultured in Sabouraud dextrose broth (SDB) for approximately 44-52 hours for preparation of inoculum. A. niger was cultured on Sabouraud dextrose agar (SDA) for 3-4 days until there was confluent growth and visible spore formation. Spores were harvested from the SDA plates by flooding the surface of the plate with 5-10 mL of phosphate-buffered saline (PBS) and gently spreading the liquid across the surface of the plate with a sterile T-shaped plastic spreader (Copan Diagnostics) until there was a well-mixed suspension of spores. The resulting spore suspension was collected using a serological pipette and stored at 2-8° C. until use.
(§8) Inoculum concentration was determined by dilution plating of the cultures or spore suspension. A serial dilution in PBS was made to 10^−8 for the bacterial cultures or 10^−5 for the fungal cultures. Fifty or 100 μL of the final dilution was spread on two Trypticase-soy agar (TSA) plates for bacteria or two SDA plates for fungi. After 24 to 48 hours plates were counted and the concentrations used in each experiment were calculated.
The A. niger spore suspensions were concentrated to a level of 1-2×10^8 spores/mL by centrifugation and resuspension in a portion of the resulting supernatant.
(§9) The antimicrobial agents tested for synergy along with the respective diluents and working stock solution concentrations are shown below. For determination of MIC ranges, individual antimicrobial agent stock solutions were added to sterile medium to yield the highest level test concentrations, and then serially diluted in the medium to prepare the range of test concentrations. For synergy testing individual test concentrations were prepared in sterile medium, and then blended to form the desired combinations.
(§10) MICs were determined using a high-throughput microplate method. Individual antimicrobial agents were added to TSB (pH 7.3) for bacterial testing or SDB (pH 5.6) for fungal testing at the highest concentration to be tested. A serial dilution series was prepared at a dilution ratio of 1:1.3333 such that a one log range was covered in nine dilutions. Two-hundred microliters of the diluted antimicrobial agents were dispensed into four wells each of a sterile, 96-well, flat-bottom microplate (Nalge Nunc International). Four additional wells of the highest concentration were dispensed to serve as uninoculated high-level controls. Eight additional wells containing only broth medium were also prepared, four to serve as negative controls and four as positive controls. Three wells of each antimicrobial agent dilution were inoculated with one of the test strains in Table 7. The final well of each antimicrobial agent dilution was left uninoculated to serve as a control (and means of compensating) for any absorbance/turbidity due to the test compounds.
Microplates were inoculated using the cultures or spore suspensions prepared as described above. The S. aureus cultures were used undiluted, while the E. coli and P. aeruginosa cultures were used either undiluted or after a 1:2 dilution in sterile TSB. The C. albicans cultures were used either undiluted or following a 2-fold concentration by centrifugation. One of two means of inoculation was used to deliver a final concentration of approximately 10^5 colony-forming units (CFU)/mL of C. albicans, 10^5 spores/mL of A. niger, or 10^6 CFU/mL of bacteria. The primary method used a stainless steel pin replicator (Nalge Nunc International) mounted on a hand-operated bench-top press (Schmidt Technology Corporation) fitted with a custom-built microplate holder to dispense one microliter of each inoculum from a “master” plate containing 50-100 μL of culture into the wells of the test plate. The pin replicator was sterilized before and between inoculations by immersing in ethanol and flaming. […]

[2] = system: Pseudomonas aeruginosa ATCC 27853; test: as above; format: cell-based; settings: MP: MIC alone (QB) or conc. in combination with CHDM (b); plate 146E; day 1
Method: as §7, §8, §9, §10
(§11) Microplates were inoculated using the cultures or spore suspensions prepared as described above. The S. aureus cultures were used undiluted, while the E. coli and P. aeruginosa cultures were used either undiluted or after a 1:2 dilution in sterile TSB. The C. albicans cultures were used either undiluted or following a 2-fold concentration by centrifugation. One of two means of inoculation was used to deliver a final concentration of approximately 10^5 colony-forming units (CFU)/mL of C. albicans, 10^5 spores/mL of A. niger, or 10^6 CFU/mL of bacteria. The primary method used a stainless steel pin replicator (Nalge Nunc International) mounted on a hand-operated bench-top press (Schmidt Technology Corporation) fitted with a custom-built microplate holder to dispense one microliter of each inoculum from a “master” plate containing 50-100 μL of culture into the wells of the test plate. The pin replicator was sterilized before and between inoculations by immersing in ethanol and flaming. The alternative method of inoculation was by directly pipetting 20 μL of a 1:20 dilution of each culture or spore suspension into the appropriate wells of the test plates.

[3] = system: Staphylococcus aureus ATCC 25923; test: as above; format: cell-based; settings: MP: MIC alone (QB) or conc. in combination with CHDM (b), plate 166D
Method: as §7, §8, §9, §10, §11

Aspergillus niger = test: Test for adequate preservation in skin cream formulation (microorganism counts); format: cell-based; settings: skin cream emulsion pH 6.75; concentration in label
Method: (§12) A test for adequate preservation was carried out in accordance with the European Pharmacopea (6.0) and United States Pharmacopea (5.1). The testing consisted of the inoculation of a skin cream formulation serving as an emulsion substrate. The skin cream formulation having a pH of 6.75 was as follows: […]
(§13) This skin cream was the emulsion substrate, which formed the base for all further experimentation.
(§14) For Examples 3.1 through 3.10, 390.0 g cream were weighed into a 600-ml beaker. The cream was stirred at room temperature while adding the ingredients specified in Table 51. Each sample was stirred for 2 hours, then placed in the refrigerator until inoculated.
(§15) For Examples 3.11 and 3.12, 179.4 g cream were weighed into a 400-ml beaker. The cream was stirred at room temperature while adding the specified ingredients.
(§16) The samples of Examples 3.1 through 3.10 were challenged with specific organisms (see Table 51) to produce a contamination of between 1.0×10^5 cfu/g and 1.0×10^6 cfu/g. The actual inoculation counts resulting from these challenges were immediately determined by diluting in sterile buffered water and (spread plate method) plating for enumeration.
(§17) Challenge organisms were prepared in Mueller-Hinton broth, allowed to grow for 72 hours at 35° C.+/−2° C., centrifuged at 2500 rpm for 5 minutes, and the supernatant broth was removed. The microbial pellet was then re-diluted with sterile buffered water to a turbidity that matched previous 1.0×10^8 cfu/g concentrations of that organism's specific growth curve.
(§18) The test emulsions were maintained within a specific temperature range optimal for the organisms; 35° C.+/2° C. for the bacteria and 22° C.+/−2° C. for the fungi, for the first three days. They were kept at ambient room temperature for the subsequent time periods.
(§19) Subculture samples of approximately 1 gram were taken for counts at 7, 14, and 30 days and incubated under optimal conditions and nutrition for no less than 5 days. Subcultures were diluted 1:2, 1:10, 1:100, . . . , 1:10,000 and plated using the spread plate method onto Plate Count Agar and onto SAB Dextrose Agar for the Candida and Aspergillus species; and incubated as follows: 35° C.+/−2° C. for the Plate Count Agar and 22° C.+/−2° C. for the SAB Dextrose plates of Candida albicans and Aspergillus niger. Negative results were not reported before 7 days incubation, and counts were performed after no less than 5 days incubation. Because of the high viscosity of the test emulsion, at least a 1:2 dilution was required to perform the spread plate subcultures. 0-30 counts represent a 1 to 2 dilution, numbers […] a 1:10 dilution; and the rest represent dilutions of 1:100, 1:1000, or 1:10,000. […]

Candida albicans = test: as above; format: cell-based; settings: skin cream emulsion pH 6.75; concentration in label
Method: as §12, §13, §14, §15, §16, §17, §18, §19

[4] = Solubility in aqueous growth media; format: physicochemical
From the text: Final results have been summarized below in Table 59.

[5] = system: panel of five strains of microorganisms; test: MIC comparison of 1,1- and 1,4-CHDM (Example 6), statements over the panel; format: cell-based; settings: MIC at 24, 48 and 72 hours
Method: as §1
Strains P. aeruginosa, C. albicans, E. coli, A. niger and S. aureus were purchased from the American Type Culture Collection (Manassas, Va.). […] Absorbance measurements were taken with a TECAN GENios Pro microplate reader. […]
as §6, with “Measurements were taken at 24, 48 and 72 hours for each plate.” left out

SMILES	MIC Day 1 (C. albicans) [wt %]	MIC Day 2 (C. albicans) [wt %]	MIC Day 3 (C. albicans) [wt %]	MIC Day 1 (E. coli) [wt %]	MIC Day 2 (E. coli) [wt %]	MIC Day 3 (E. coli) [wt %]	MIC Day 1 (P. aeruginosa) [wt %]	MIC Day 2 (P. aeruginosa) [wt %]	MIC Day 3 (P. aeruginosa) [wt %]	MIC Day 1 (S. aureus) [wt %]	MIC Day 2 (S. aureus) [wt %]	MIC Day 3 (S. aureus) [wt %]	MIC Day 1 (A. niger) [wt %]	MIC Day 2 (A. niger) [wt %]	MIC Day 3 (A. niger) [wt %]	also measured
OCC1CCC(CO)CC1 (stereo not shown) [1,4 CHDM]	3.75	4.99	>5.0	1.58	1.58	1.58	1.58	1.58	2.11	3.75	3.75	3.75	>5.0	3.75	3.75	–
COC(=O)c1ccc(O)cc1 [MP, Methylparaben, reference compound]	–	–	–	–	–	–	–	–	–	–	–	–	–	–	–	QB/b: concentration of MP (MIC alone, or in the combination at an inhibitory concentration) [1]: 0.050 weight percent; SI (synergy index) [1]: 1.00; QB/b [2]: 0.14; QB/b ([3]; day 1): 0.23; QB/b ([3]; day 2): 0.23; Antimicrobial activity against Aspergillus niger in skin cream (in words) (Aspergillus niger): not at this low concentration; Antimicrobial activity against Candida albicans in skin cream (in words) (Candida albicans): not at this low concentration
OCC1(CO)CCCCC1 [1,1-CHDM, 1,1-cyclohexanedimethanol]	–	–	–	–	–	–	–	–	–	–	–	–	–	–	–	Solubility [4]: ≤ 2.25 % (w/v); Antimicrobial efficacy (MIC) compared with 1,4-CHDM (in words) [5]: significant improvement in efficacy over 1,4-CHDM; also recorded: lower MIC values; also recorded: improved efficacy over 1,4-CHDM; Antimicrobial efficacy (MIC) compared with 1,4-CHDM (in words) ([5]; listed as 1,1-cyclohexanedimethanol): measurable increase in antimicrobial efficacy over that of 1,4-cyclohexanedimethanol; also recorded: Antimicrobial efficacy increased against four of the five test organisms
OCC1(CO)CCCCC1 [1,1 CHDM]	2.25	2.25	2.25	1.26	1.26	1.26	1.26	1.26	1.26	2.25	2.25	2.25	>2.25	>2.25	>2.25	–
